According to patent publication US9090583B2, “Benzopyrone estrogen receptor regulator” (BEIJING SHENOGEN PHARMA GROUP LTD., priority 2010, dated 2015):
Like-named read-outs stand apart in the source and are kept apart here.

Key:
[1] = tested on: MDA-MB-231 cells; assay: CellTiter-Glo Luminescent Cell Viability Assay on ER-negative breast cancer MDA-MB-231 cells; format: cell-based; conditions: average ± standard deviation when tested more than 3 times, read-out: Inhibition of the viability of breast cancer cells, IC50
Protocol: A: In Vitro CellTiter-Glo® Luminescent Cell Viability Assay on ER-Negative Breast Cancer MDA-MB-231 Cells:
MDA-MB-231 cells were maintained at 37° C., under 5% CO2 atmosphere in DMEM containing 10% fetal calf serum. The cells were seeded on 96-well plate at a density of 6×10^3 cells per well. MDA-MB-231 cells were treated with a test compound dissolved in DMSO at the concentrations of zero, 0.3 μM, 0.5 μM, 1 μM, 2 μM, 3 μM, 5 μM, 10 μM, 20 μM, 30 μM, 50 μM and 100 μM for 72 hours. Treated cells were examined by CellTiter-Glo® Luminescent Cell Viability Assay Kit (Promega), and luminescence values were recorded with Envision.

[2] = tested on: MCF7 cells; assay: CellTiter-Glo Luminescent Cell Viability Assay on ER-positive breast cancer MCF-7 cells; format: cell-based, human; conditions: average ± standard deviation when tested more than 3 times, read-out: Inhibition of the viability of breast cancer cells, IC50
Description: B: In Vitro CellTiter-Glo® Luminescent Cell Viability Assay on ER-Positive Breast Cancer MCF-7 Cells:
MCF7 cells are breast cancer cell lines that highly express ER-66, ER-46 and ER-36. (Relevance of breast cancer cell lines as models for breast tumours: an update. Marc Lacroix, Guy Leclercq, Breast Cancer Research and Treatment (2004) 83, 249-289; Wang et al., Proc. Natl. Acad. Sci. U.S.A. 103:9063-9068 (2006)). MCF7 cells were obtained from ATCC and maintained in Dulbecco's Modified Eagles Medium (DMEM) and 10% fetal calf serum at 37° C., under 5% CO2 atmosphere. The cells were seeded on 96-well plate at a density of 6×10^3 cells per well. MCF7 cells were treated with a test compound dissolved in DMSO at the concentrations of zero, 0.3 μM, 0.5 μM, 1 μM, 2 μM, 3 μM, 5 μM, 10 μM, 20 μM, 30 μM, 50 μM and 100 μM for 72 hours. Treated cells were examined by CellTiter-Glo® Luminescent Cell Viability Assay Kit (Promega), and luminescence values were recorded with Envision.

Compound	IC50 ([1]; 72 hours)	IC50 ([2]; 72 hours)	IC50 ([1]; Homo sapiens, MDA-MB-231, 72 h)	IC50 ([2]; Homo sapiens, MCF7, 72 h)
2-(benzo[b]thiazol-2-yl)-5,7-dihydroxy-3-methoxy-6,8-di(3-3-methyl-2-buten-1-yl)-4H-benzopyran-4-one [Compound 49]	17.9 µM	17.8 µM	–	–
2-(benzo[d][1,3]dioxo-5-yl)-5,7-dihydroxy-3-methoxy-6,8-di(3-methyl-2-buten-1-yl)-4H-benzopyran-4-one [Compound 21]	13.8 ± 2.1 µM	47.2 ± 22.5 µM	–	–
2-(piperazin-2-yl)-5,7-dihydroxy-3-methoxy-6,8-di(3-methyl-2-buten-1-yl)-4H-benzopyran-4-one [Compound 30]	77.2 µM	> 100 µM	–	–
COc1ccc(-c2oc3c(CC=C(C)C)c(O)c(CC=C(C)C)c(O)c3c(=O)c2OC)cc1F [Compound 1, 2-(3-fluoro-4-methoxyphenyl)-5,7-dihydroxy-3-methoxy-6,8-di(3-methyl-2-buten-1-yl)-4H-benzopyran-4-one]	–	–	14.2 ± 5.18 µM	16 µM
COc1c(-c2cccc(F)c2)oc2c(CC=C(C)C)c(O)c(CC=C(C)C)c(O)c2c1=O [Compound 3, 2-(3-fluorophenyl)-5,7-dihydroxy-3-methoxy-6,8-di(3-methyl-2-buten-1-yl)-4H-benzopyran-4-one]	–	–	12.6 ± 2.4 µM	10.4 ± 0.22 µM
COc1cc(-c2oc3c(CC=C(C)C)c(O)c(CC=C(C)C)c(O)c3c(=O)c2OC)ccc1F [Compound 9, 2-(4-fluoro-3-methoxyphenyl)-5,7-dihydroxy-3-methoxy-6,8-di(3-methyl-2-butylene-1-yl)-4H-benzopyran-4-one]	> 100 µM	> 100 µM	–	–
COc1c(-c2ccc(Cl)c(C)c2)oc2c(CC=C(C)C)c(O)c(CC=C(C)C)c(O)c2c1=O [Compound 11, 2-(4-chloro-3-methylphenyl)-5,7-dihydroxy-3-methoxy-6,8-di(3-methyl-2-buten-1-yl)-4H-benzopyran-4-one]	–	–	13.8 µM	15.5 µM
COc1c(-c2ccc(Cl)c(Cl)c2)oc2c(CC=C(C)C)c(O)c(CC=C(C)C)c(O)c2c1=O [Compound 12, 2-(3,4-dichlorophenyl)-5,7-dihydroxy-3-methoxy-6,8-di(3-methyl-2-butylene-1-yl)-4H-benzopyran-4-one]	16.1 µM	> 100 µM	–	–
COc1c(-c2ccc(Cl)c(C(F)(F)F)c2)oc2c(CC=C(C)C)c(O)c(CC=C(C)C)c(O)c2c1=O [Compound 13, 2-(4-chloro-3-trifluoromethylphenyl)-5,7-dihydroxy-3-methoxy-6,8-di(3-methyl-2-butylene-1-yl)-4H-benzopyran-4-one]	22.7 µM	35.4 µM	–	–
COc1c(-c2ccc(Cl)cc2F)oc2c(CC=C(C)C)c(O)c(CC=C(C)C)c(O)c2c1=O [Compound 14, 2-(2-fluoro-4-chlorophenyl)-5,7-dihydroxy-3-methoxy-6,8-di(3-methyl-2-butylene-1-yl)-4H-benzopyran-4-one]	23.6 µM	13.5 µM	–	–
COc1c(-c2ccc(C)cc2)oc2c(CC=C(C)C)c(O)c(CC=C(C)C)c(O)c2c1=O [Compound 16, 2-(4-methylphenyl)-5,7-dihydroxy-3-methoxy-6,8-di(3-methyl-2-butylene-1-yl)-4H-benzopyran-4-one]	16.3 µM	> 100 µM	–	–
COc1c(-c2ccc(C(C)C)cc2)oc2c(CC=C(C)C)c(O)c(CC=C(C)C)c(O)c2c1=O [Compound 17, 2-(4-isopropylphenyl)-5,7-dihydroxy-3-methoxy-6,8-di(3-methyl-2-butylene-1-yl)-4H-benzopyran-4-one]	25.6 µM	40.1 µM	–	–
COc1c(-c2ccc3ccccc3c2)oc2c(CC=C(C)C)c(O)c(CC=C(C)C)c(O)c2c1=O [Compound 19, 2-(naphthalen-2-yl)-5,7-dihydroxy-3-methoxy-6,8-di(3-methyl-2-butylene-1-yl)-4H-benzopyran-4-one]	13.7 ± 1.99 µM	27.4 µM	–	–
COc1c(-c2ccc3c(c2)OCCO3)oc2c(CC=C(C)C)c(O)c(CC=C(C)C)c(O)c2c1=O [Compound 20, 2-(2,3-dihydrobenzo[b][1,4]dioxan-6-yl)-5,7-dihydroxy-3-methoxy-6,8-di(3-methyl-2-buten-1-yl)-4H-benzopyran-4-one]	12.6 µM	> 100 µM	–	–
CCOc1ccc(-c2oc3c(CC=C(C)C)c(O)c(CC=C(C)C)c(O)c3c(=O)c2OC)cc1F [Compound 23, 2-(3-fluoro-4-ethoxylphenyl)-5,7-dihydroxy-3-methoxy-6,8-di(3-methyl-2-buten-1-yl)-4H-benzopyran-4-one]	–	–	28.8 µM	20.1 µM
CCOc1ccc(-c2oc3c(CC=C(C)C)c(O)c(CC=C(C)C)c(O)c3c(=O)c2OC)cc1 [Compound 24, 2-(4-ethoxyphenyl)-5,7-dihydroxy-3-methoxy-6,8-di(3-methyl-2-buten-1-yl)-4H-benzopyran-4-one]	–	–	> 100 µM	> 100 µM
COc1c(-c2cccnc2)oc2c(CC=C(C)C)c(O)c(CC=C(C)C)c(O)c2c1=O [Compound 28, 2-(pyridin-3-yl)-5,7-dihydroxy-3-methoxy-6,8-di(3-methyl-2-buten-1-yl)-4H-benzopyran-4-one]	–	–	18.1 ± 4.3 µM	13.2 µM
COc1c(-c2ccccn2)oc2c(CC=C(C)C)c(O)c(CC=C(C)C)c(O)c2c1=O [Compound 29, 2-(pyridin-2-yl)-5,7-dihydroxy-3-methoxy-6,8-di(3-methyl-2-buten-1-yl)-4H-benzopyran-4-one]	–	–	> 100 µM	12 µM
COc1c(-c2ccncc2)oc2c(CC=C(C)C)c(O)c(CC=C(C)C)c(O)c2c1=O [Compound 31, 2-(pyridin-4-yl)-5,7-dihydroxy-3-methoxy-6,8-di(3-methyl-2-buten-1-yl)-4H-benzopyran-4-one]	–	–	25.1 µM	> 100 µM
COc1c(-c2cncnc2)oc2c(CC=C(C)C)c(O)c(CC=C(C)C)c(O)c2c1=O [Compound 32, 2-(pyrimidin-5-yl)-5,7-dihydroxy-3-methoxy-6,8-di(3-methyl-2-buten-1-yl)-4H-benzopyran-4-one]	–	–	20 µM	34.4 µM
COc1c(-c2ncccn2)oc2c(CC=C(C)C)c(O)c(CC=C(C)C)c(O)c2c1=O [Compound 33, 2-(pyrimidin-2-yl)-5,7-dihydroxy-3-methoxy-6,8-di(3-methyl-2-buten-1-yl)-4H-benzopyran-4-one]	–	–	22.3 µM	> 100 µM
COc1c(C2CC2)oc2c(CC=C(C)C)c(O)c(CC=C(C)C)c(O)c2c1=O [Compound 34, 2-cyclopropyl-5,7-dihydroxy-3-methoxy-6,8-di(3-methyl-2-buten-1-yl)-4H-benzopyran-4-one]	–	–	25.6 µM	> 100 µM
COc1c(C2CCC2)oc2c(CC=C(C)C)c(O)c(CC=C(C)C)c(O)c2c1=O [Compound 35, 2-cyclobutyl-5,7-dihydroxy-3-methoxy-6,8-di(3-methyl-2-buten-1-yl)-4H-benzopyran-4-one]	–	–	> 100 µM	88.1 µM
COc1c(C2CCCC2)oc2c(CC=C(C)C)c(O)c(CC=C(C)C)c(O)c2c1=O [Compound 36, 2-cyclopentyl-5,7-dihydroxy-3-methoxy-6,8-di(3-methyl-2-buten-1-yl)-4H-benzopyran-4-one]	–	–	> 100 µM	> 100 µM
CC(C)=CCc1c(O)c(CC=C(C)C)c2oc(-c3ccc(F)cc3)c(O)c(=O)c2c1O [Compound 97, 2-(4-fluorophenyl)-3,5,7-trihydroxy-6,8-di(3-methyl-2-buten-1-yl)-4H-benzopyran-4-one]	–	–	21.4 µM	–
